Key:
CD4+ T cells = assay: T cell memory formation, mixed lymphocyte reaction (MLR) assay, CD4+ cells; format: cell-based, mouse; conditions: MLR in presence of Compound 107
Description: (§1) Spleens were isolated from OT-I and processed into a single cell suspension. Red blood cells (RBCs) were lysed using RBC lysis solution. Splenocytes (2×10^6 cells/ml) were cultured in complete media (10% FBS in DMEM) and stimulated with 5 μg/ml OVA MHC class I epitope peptide (SIINFEKL, SEQ ID NO:1) in the absence or presence of 0.01 μM, 0.1 μM, 1.0 μM, 3.0 μM, or 10 μM of MNK-specific inhibitor, Compound 107, for 48 hrs. For the mixed lymphocyte reaction (MLR) assay, peritoneal macrophages were first isolated from BALB/c mice by peritoneal wash with chilled DMEM media. This lavage was plated in a 24 well plate for 2 h at 37° C. After 2 h, non-adherent cells were washed to remove non-macrophage populations. The adherent cells (primarily peritoneal macrophages) were cultured in complete media in the absence or presence of the indicated Compound 107 concentrations for 24 h. After 24 h, panned splenocytes (enriched in T cells) from C57BL/6 mice were added to the macrophage culture in the absence or presence of Compound 107 for an additional 4 days.
(§2) The cells were harvested from the MLR, washed and stained with Horizon™ FVS, anti-CD4, anti-CD8, anti-CD44 and anti-CD62L antibodies. The cells were analyzed by flow cytometry (Attune NXT, ThermoFisher) and FlowJo analysis software (FlowJo LLC, Ashland Oreg.). CD8+ and CD4+ cells populations were analyzed for expression of CD44 and CD62L. […]

CD8+ T cells [1] = assay: T cell memory formation, mixed lymphocyte reaction (MLR) assay, CD8+ cells; format: cell-based, mouse
Description: as §1, §2

[2] = tested on: OT-I memory T cells (CD45.2+CD8+CD44+) in spleen; assay: Long-term memory/recall response after adoptive transfer of OT-I T cells; format: in vivo, B6.SJL mice
Description: Spleens were isolated from OT-I mice and CD3^+ T cells were isolated using the MojoSort Mouse CD3 T Cell Isolation Kit (Biolegend, San Diego Calif.). OT-I T cells (2×10^6 cells) were adoptively transferred into B6.SJL mice through intravenous tail vein injection. Mice were dosed orally with vehicle or 1 mg/kg Compound 107 24 hrs later and vaccinated subcutaneously with SIINFEKL peptide (SEQ ID NO:1) (50 μg/mouse). Mice were dosed with vehicle or 1 mg/kg Compound 107 for an additional six days. On day 21 post-immunization, selected groups were boosted with an additional injection of SIINFEKL peptide (SEQ ID NO:1) (50 μg/mouse). On day 24, spleens were harvested from animals and processed into a single cell suspension for flow cytometry analysis. Cells were stained with BD Horizon Fixable Viability Stain and antibodies against CD45.2, CD8, and CD44. Cells were analyzed using an Attune NXT flow cytometer and data was processed using FlowJo 10.1 software.

CD8+ T cells [3] = assay: T cell memory formation, OVA MHC class I epitope peptide (SIINFEKL) stimulation of OT-I splenocytes; format: cell-based, mouse; conditions: 5 μg/ml SIINFEKL peptide plus Compound 107 0.01-10 μM, 48 hrs, peptide alone 32%
Description: as §1, §2

E.G7-OVA tumors = assay: In vivo tumor growth inhibition; design: species or system athymic nude mice
Description: E.G7-OVA tumor cells (2×10^6) were implanted subcutaneously into athymic nude mice. On day 7 post-implant, tumors were measured (˜192 mm^3) and tumor-bearing animals were randomized into 6 groups. T cells purified from OT-I mouse spleens were cultured for 48 h in vitro with DMSO/PBS control alone, 50 μg/ml SIINFEKL peptide (SEQ ID NO:1) alone, 1 μM Compound 107, or the combination of 50 μg/ml SIINFEKL (SEQ ID NO:1) and 1 μM Compound 107. The in vitro treated OT-I T cells were adoptively transferred into animals from the appropriate groups (2×10^6 cells/mouse) by tail vein injection. Animals were dosed in vivo with vehicle or 1 mg/kg Compound 107 and tumor size and body weight was monitored during the course of the study.

Cc1cc(Nc2cc(N)ncn2)c(=O)n2c1C(=O)NC21CCCCC1.Cl [Compound 107]
pool of TCM CD4+ T cells (CD4+ T cells; MLR alone 21%): 28-39% | TEM CD4+ T cell pool (CD4+ T cells; MLR alone 25%): 16-23% | pool of TCM CD8+ T cells (CD8+ T cells [1]; MLR in presence of Compound 107, MLR alone 15%): 20-29% | TEM pool of CD8+ T cells (CD8+ T cells [1]; MLR, 0.01-3 μM of Compound 107, MLR alone 16%): 8-11% | percentage of OT-I memory T cells in spleen (% of total lymphocytes) ([2]; immunized and boosted with SIINFEKL, 1 mg/kg oral during immunization, day 24, vs vehicle-treated immunized/boosted group): significantly increased | population of OT-I memory T cells in spleen (% of total lymphocytes) ([2]; un-immunized animals, 1 mg/kg oral, day 24): unaffected | distribution of CD8+ T cells in the TCM pool (CD44high CD62Lhigh) (CD8+ T cells [3]): 36-41% | tumor growth inhibition (TGI) (E.G7-OVA tumors; OT-I cells pre-treated in vitro with SIINFEKL and Compound 107, animals also dosed in vivo with 1 mg/kg Compound 107, compared with the vehicle-dosed group (55%)): did not show any further increase in TGI | tumor growth inhibition (TGI) (E.G7-OVA tumors; adoptive transfer of SIINFEKL-pre-treated OT-I cells, animals dosed 1 mg/kg Compound 107 daily, 8 days post-transfer): 45% | tumor growth inhibition (TGI) (E.G7-OVA tumors; no adoptive transfer of OT-I T cells, 1 mg/kg Compound 107 daily vs vehicle, 8 days post-transfer): 16% | tumor growth inhibition (TGI) (E.G7-OVA tumors; vehicle-dosed animals, OT-I cells pre-treated in vitro with SIINFEKL and 1 μM Compound 107, 8 days post-transfer): 55%

Source: patent US11564947B2, “Methods and compositions for cellular immunotherapy” (eFFECTOR Therapeutics, Inc., priority 2017, dated 2023)
